# Measured values as given in PubChem BioAssay AID1963962 (Molecular Pharmacology Branch, DTP, NCI, 2024).
# Tested on: 967376-340-R-J2-PDC multicell spheroid viability
# Experiment: Anticancer human tumor 967376-340-R-J2-PDC patient-derived colon adenocarcinoma cell line growth inhibition [PI3K]
# Conditions: for IC50: curve of first compound; for viability, T/C: stronger effect = lower value
# Description: Combinatorial screen of targeted agents with the PI3K inhibitors inavolisib, alpelisib, duvelisib, and copanlisib in multi-cell type tumor spheroids
# A high-throughput screen of multi-cell type tumor spheroids was designed to identify active combinations of targeted small molecules and PI3K pathway inhibitors. Complex spheroids include a stromal component modeled by human endothelial cells (HUVEC) and fibroblasts modeled by human mesenchymal stem cells (MSCs). The concentration ranges selected for each drug and investigational agent were based upon clinically achievable concentrations if the clinical Cmax of the agent was known.
# Compounds. The drugs and investigational agents: inavolisib (NSC800729), alpelisib (NSC765974), duvelisib (NSC772469), copanlisib (NSC816437), ipatasertib (NSC767898), afuresertib (NSC778305), talazoparib (NSC767125), sapanisertib (NSC764658), selumetinib (NSC741078), tovorafenib (DAY101, NSC766906), vemurafenib (NSC761431), ravoxertinib (NSC781343), sotorasib (NSC818433), MRTX1133 (NSC 836407), abemaciclib (NSC 768073), palbociclib (NSC758247), venetoclax (NSC 766270), SY5609 (NSC837396), enzalutamide (NSC755605), and darolutamide (NSC825331), were obtained from the National Cancer Institute (NCI) Developmental Therapeutics Program Chemical Repository. The FDA-approved anticancer drug set is available from the NCI Developmental Therapeutics Program. […] The stock solutions were prepared in dimethyl sulfoxide (DMSO, Sigma-Aldrich, St. Louis, MO, cat. D2650) at 800-fold the tested concentration and stored at -70 degrees C prior to their use. All drugs and investigational agents were tested over a range starting from a high concentration at or near the clinical Cmax and decreasing in half-log increments. If the clinical Cmax for an agent had not been determined, the highest concentration tested was 10 microM.
# Cell Culture. All cells were maintained in an incubator at 37 degrees C and 5% CO2 with 95% humidity. The PDC lines were cultured according to standard operating procedures established by the NCI PDMR (https://pdmr.cancer.gov/sops/default.htm). All PDCs were thawed and cultured in Matrigel-coated flasks prepared with a working solution of 1X Ham's F-12 nutrient mix, without supplementation (Invitrogen, Waltham, MA, cat. 11765054), 100 U/mL penicillin-streptomycin (Invitrogen, cat. 15140122), and 2.5% Matrigel (Corning Inc., Corning, NY, cat. 354248) for the first three passages. The 354836-022-R-J1-PDC, 475296-252-R-J1-PDC, and 997726-040-R-J2-PDC lines were cultured in 6A media, which includes advanced DMEM/F-12 (Thermo Fisher Scientific, cat. 12634028), 10 mM HEPES (Thermo Fisher Scientific, cat. 15630080), 1X GlutaMAX supplement (Thermo Fisher Scientific, cat. 35050061), 0.1 mg/mL primocin (InvivoGen, San Diego, CA, cat. ant-pm-2), 10% defined fetal bovine serum, heat inactivated (HyClone Laboratories Inc., Logan, UT, cat. SH30070.03HI), 50% L-WRN conditioned media (ATCC, cat. CRL-3276), 1.25 mM N-Acetyl-L-cysteine (Sigma-Aldrich, cat. A9165), 10 mM nicotinamide (Sigma-Aldrich, cat. N0636), 1X B-27 supplement (Thermo Fisher Scientific, cat. 17504044), 1X N-2 supplement (Thermo Fisher Scientific, cat. 17502048), and 10 microM Y-27632 dihydrochloride (Tocris Bioscience, Bristol, United Kingdom, cat. 1254). The 624824-186-R-J2-PDC line was cultured in 6C/Colon 1B media, which includes all 6A media components plus 50 ng/mL human EGF recombinant protein (Thermo Fisher Scientific, cat. PHG0311). […]
# [1] = second compound 0.00316 µM, first compound 0.0316 µM
# [2] = second compound 0.00316 µM, first compound 0.1 µM
# [3] = second compound 0.01 µM, first compound 0.0316 µM
# [4] = second compound 0.01 µM, first compound 0.1 µM
# [5] = second compound 0.0316 µM, first compound 0.0316 µM
# [6] = second compound 0.0316 µM, first compound 0.1 µM
# [7] = second compound 0.1 µM, first compound 0.0316 µM
# [8] = second compound 0.1 µM, first compound 0.1 µM
# [9] = second compound 0.316 µM, first compound 0.0316 µM
# [10] = second compound 0.316 µM, first compound 0.1 µM
# [11] = second compound 1 µM, first compound 0.0316 µM
# [12] = second compound 1 µM, first compound 0.1 µM
# 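Further: spheroids exposed to agents for 7 days before read-out.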
# 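Wherever viability, T/C is given: luminescence used as surrogate of cell viability.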
smiles,measurement,setting,value
CC(=O)c1c(C)c2cnc(Nc3ccc(N4CCNCC4)cn3)nc2n(C2CCCC2)c1=O + CC(Nc1ccc2c(c1)OCCn1cc(N3C(=O)OCC3C(F)F)nc1-2)C(N)=O,IC50,second compound 0.00316 µM,> 0.1 µM
same,IC50,second compound 0.01 µM,> 0.1 µM
same,IC50,second compound 0.0316 µM,> 0.1 µM
same,IC50,second compound 0.1 µM,> 0.1 µM
same,IC50,second compound 0.316 µM,> 0.1 µM
same,IC50,second compound 1 µM,> 0.1 µM
same,"viability, T/C","second compound 0.00316 µM, first compound 0.000316 µM",111%
same,"viability, T/C","second compound 0.00316 µM, first compound 0.001 µM",79.3%
same,"viability, T/C","second compound 0.00316 µM, first compound 0.00316 µM",93.8%
same,"viability, T/C","second compound 0.00316 µM, first compound 0.01 µM",102%
same,"viability, T/C",[1],114%
same,"viability, T/C",[2],87.4%
same,"viability, T/C","second compound 0.01 µM, first compound 0.000316 µM",100%
same,"viability, T/C","second compound 0.01 µM, first compound 0.001 µM",101%
same,"viability, T/C","second compound 0.01 µM, first compound 0.00316 µM",96.4%
same,"viability, T/C","second compound 0.01 µM, first compound 0.01 µM",93%
same,"viability, T/C",[3],94.7%
same,"viability, T/C",[4],75.8%
same,"viability, T/C","second compound 0.0316 µM, first compound 0.000316 µM",92.7%
same,"viability, T/C","second compound 0.0316 µM, first compound 0.001 µM",88.4%
same,"viability, T/C","second compound 0.0316 µM, first compound 0.00316 µM",70.7%
same,"viability, T/C","second compound 0.0316 µM, first compound 0.01 µM",117%
same,"viability, T/C",[5],91.3%
same,"viability, T/C",[6],84.7%
same,"viability, T/C","second compound 0.1 µM, first compound 0.000316 µM",87.9%
same,"viability, T/C","second compound 0.1 µM, first compound 0.001 µM",78.8%
same,"viability, T/C","second compound 0.1 µM, first compound 0.00316 µM",96.3%
same,"viability, T/C","second compound 0.1 µM, first compound 0.01 µM",64.3%
same,"viability, T/C",[7],90.2%
same,"viability, T/C",[8],79.7%
same,"viability, T/C","second compound 0.316 µM, first compound 0.000316 µM",64.3%
same,"viability, T/C","second compound 0.316 µM, first compound 0.001 µM",74.7%
same,"viability, T/C","second compound 0.316 µM, first compound 0.00316 µM",72.8%
same,"viability, T/C","second compound 0.316 µM, first compound 0.01 µM",72.1%
same,"viability, T/C",[9],72.9%
same,"viability, T/C",[10],67.8%
same,"viability, T/C","second compound 1 µM, first compound 0.000316 µM",65%
same,"viability, T/C","second compound 1 µM, first compound 0.001 µM",64.2%
same,"viability, T/C","second compound 1 µM, first compound 0.00316 µM",77.8%
same,"viability, T/C","second compound 1 µM, first compound 0.01 µM",55.7%
same,"viability, T/C",[11],61.6%
same,"viability, T/C",[12],50.9%
CCCS(=O)(=O)Nc1ccc(F)c(C(=O)c2c[nH]c3ncc(-c4ccc(Cl)cc4)cc23)c1F + CC(Nc1ccc2c(c1)OCCn1cc(N3C(=O)OCC3C(F)F)nc1-2)C(N)=O,IC50,second compound 0.00316 µM,> 10 µM
same,IC50,second compound 0.01 µM,9.81 µM
same,IC50,second compound 0.0316 µM,> 10 µM
same,IC50,second compound 0.1 µM,8.12 µM
same,IC50,second compound 0.316 µM,> 10 µM
same,IC50,second compound 1 µM,3.83 µM
same,"viability, T/C",[1],87.1%
same,"viability, T/C",[2],77.7%
same,"viability, T/C","second compound 0.00316 µM, first compound 0.316 µM",98.3%
same,"viability, T/C","second compound 0.00316 µM, first compound 1 µM",60.2%
same,"viability, T/C","second compound 0.00316 µM, first compound 3.16 µM",81.4%
same,"viability, T/C","second compound 0.00316 µM, first compound 10 µM",53.4%
same,"viability, T/C",[3],95.5%
same,"viability, T/C",[4],86.5%
same,"viability, T/C","second compound 0.01 µM, first compound 0.316 µM",88.7%
same,"viability, T/C","second compound 0.01 µM, first compound 1 µM",70.3%
same,"viability, T/C","second compound 0.01 µM, first compound 3.16 µM",89.4%
same,"viability, T/C","second compound 0.01 µM, first compound 10 µM",49.6%
same,"viability, T/C",[5],72%
same,"viability, T/C",[6],79.6%
same,"viability, T/C","second compound 0.0316 µM, first compound 0.316 µM",65.2%
same,"viability, T/C","second compound 0.0316 µM, first compound 1 µM",93.3%
same,"viability, T/C","second compound 0.0316 µM, first compound 3.16 µM",91.9%
same,"viability, T/C","second compound 0.0316 µM, first compound 10 µM",67.8%
same,"viability, T/C",[7],69.9%
same,"viability, T/C",[8],73.8%
same,"viability, T/C","second compound 0.1 µM, first compound 0.316 µM",80.3%
same,"viability, T/C","second compound 0.1 µM, first compound 1 µM",77.9%
same,"viability, T/C","second compound 0.1 µM, first compound 3.16 µM",81.5%
same,"viability, T/C","second compound 0.1 µM, first compound 10 µM",44.1%
same,"viability, T/C",[9],64.5%
same,"viability, T/C",[10],61.3%
same,"viability, T/C","second compound 0.316 µM, first compound 0.316 µM",73.8%
same,"viability, T/C","second compound 0.316 µM, first compound 1 µM",76.2%
same,"viability, T/C","second compound 0.316 µM, first compound 3.16 µM",75.2%
same,"viability, T/C","second compound 0.316 µM, first compound 10 µM",37.6%
same,"viability, T/C",[11],61.5%
same,"viability, T/C",[12],55.5%
same,"viability, T/C","second compound 1 µM, first compound 0.316 µM",58.9%
same,"viability, T/C","second compound 1 µM, first compound 1 µM",56%
same,"viability, T/C","second compound 1 µM, first compound 3.16 µM",52.6%
same,"viability, T/C","second compound 1 µM, first compound 10 µM",39.5%
